ChEMBL document CHEMBL3045033, “Synthesis of new potential anticancer agents based on 4-thiazolidinone and oleanane scaffolds” (Med Chem Res, 2012)
Where “and” joins values, the source holds several entries; their conditions need not be identical. Equal entries are not always repeated.

Legend:
Format in all cases: functional
SW-620 [1] = experiment: Cytotoxicity against Homo sapiens (human) SW620 cells at 10^-4 to 10^-8 M after 48 hr by SRB assay; settings: SW-620, 48 h, read-out: pTGI (converted)
HCT-116 = experiment: Cytotoxicity against Homo sapiens (human) HCT116 cells at 10^-4 to 10^-8 M after 48 hr by SRB assay; settings: HCT-116, 48 h, read-out: pTGI (converted)
HCC 2998 = experiment: Cytotoxicity against Homo sapiens (human) HCC2998 cells at 10^-4 to 10^-8 M after 48 hr by SRB assay; settings: HCC 2998, 48 h, read-out: pTGI (converted)
COLO 205 = experiment: Cytotoxicity against Homo sapiens (human) COLO205 cells at 10^-4 to 10^-8 M after 48 hr by SRB assay; settings: COLO 205, 48 h, read-out: pTGI (converted)
NCI-H460 = experiment: Cytotoxicity against Homo sapiens (human) NCI-H460 cells at 10^-4 to 10^-8 M after 48 hr by SRB assay; settings: NCI-H460, 48 h, read-out: pTGI (converted)
NCI-H23 = experiment: Cytotoxicity against Homo sapiens (human) NCI-H23 cells at 10^-4 to 10^-8 M after 48 hr by SRB assay; settings: NCI-H23, 48 h, read-out: pTGI (converted)
NCI-H226 = experiment: Cytotoxicity against Homo sapiens (human) NCI-H226 cells at 10^-4 to 10^-8 M after 48 hr by SRB assay; settings: NCI-H226, 48 h, read-out: pTGI (converted)
HOP-92 = experiment: Cytotoxicity against Homo sapiens (human) HOP92 cells at 10^-4 to 10^-8 M after 48 hr by SRB assay; settings: HOP-92, 48 h, read-out: pTGI (converted)
EKVX [2] = experiment: Cytotoxicity against Homo sapiens (human) EKVX cells at 10^-4 to 10^-8 M after 48 hr by SRB assay; settings: read-out: pTGI (converted)
HOP-62 [3] = experiment: Cytotoxicity against Homo sapiens (human) HOP62 cells at 10^-4 to 10^-8 M after 48 hr by SRB assay; settings: HOP-62, 48 h, read-out: pTGI (converted)
K562 = experiment: Cytotoxicity against Homo sapiens (human) K562 cells at 10^-4 to 10^-8 M after 48 hr by SRB assay; settings: K562, 48 h, read-out: pTGI (converted)
CCRF-CEM [4] = experiment: Cytotoxicity against Homo sapiens (human) CCRF-CEM cells at 10^-4 to 10^-8 M after 48 hr by SRB assay; settings: read-out: pTGI (converted)
UO-31 = experiment: Cytotoxicity against Homo sapiens (human) UO31 cells after 48 hr by SRB assay
A498 = experiment: Cytotoxicity against Homo sapiens (human) A498 cells after 48 hr by SRB assay
[5] = Cytotoxicity against Homo sapiens (human) NCI-ADR-RES cells after 48 hr by SRB assay
OVCAR-5 = experiment: Cytotoxicity against Homo sapiens (human) OVCAR5 cells after 48 hr by SRB assay
OVCAR-3 = experiment: Cytotoxicity against Homo sapiens (human) OVCAR3 cells after 48 hr by SRB assay
UACC-257 [6] = experiment: Cytotoxicity against Homo sapiens (human) UACC257 cells after 48 hr by SRB assay
SR [7] = experiment: Cytotoxicity against Homo sapiens (human) SR cells assessed as cellular growth at 10^-5 M after 48 hr by SRB assay relative to untreated control
BT-549 = experiment: Cytotoxicity against Homo sapiens (human) BT549 cells at 10^-4 to 10^-8 M after 48 hr by SRB assay; settings: BT-549, 48 h, read-out: pTGI (converted)
MDA-MB-231 = experiment: Cytotoxicity against Homo sapiens (human) MDA-MB-231 cells at 10^-4 to 10^-8 M after 48 hr by SRB assay; settings: MDA-MB-231, 48 h, read-out: pTGI (converted)
PC-3 = experiment: Cytotoxicity against Homo sapiens (human) PC3 cells at 10^-4 to 10^-8 M after 48 hr by SRB assay; settings: PC-3, 48 h, read-out: pTGI (converted)
CAKI-1 = experiment: Cytotoxicity against Homo sapiens (human) Caki1 cells at 10^-4 to 10^-8 M after 48 hr by SRB assay; settings: CAKI-1, 48 h, read-out: pTGI (converted)
786-0 = experiment: Cytotoxicity against Homo sapiens (human) 786-0 cells at 10^-4 to 10^-8 M after 48 hr by SRB assay; settings: 786-0, 48 h, read-out: pTGI (converted)
OVCAR-8 = experiment: Cytotoxicity against Homo sapiens (human) OVCAR8 cells at 10^-4 to 10^-8 M after 48 hr by SRB assay; settings: OVCAR-8, 48 h, read-out: pTGI (converted)
SK-MEL-5 = experiment: Cytotoxicity against Homo sapiens (human) SK-MEL-5 cells at 10^-4 to 10^-8 M after 48 hr by SRB assay; settings: SK-MEL-5, 48 h, read-out: pTGI (converted)
UACC-257 [8] = experiment: Cytotoxicity against Homo sapiens (human) UACC257 cells at 10^-4 to 10^-8 M after 48 hr by SRB assay; settings: UACC-257, 48 h, read-out: pTGI (converted)
SK-MEL-2 = experiment: Cytotoxicity against Homo sapiens (human) SK-MEL-2 cells at 10^-4 to 10^-8 M after 48 hr by SRB assay; settings: SK-MEL-2, 48 h, read-out: pTGI (converted)
SK-MEL-28 = experiment: Cytotoxicity against Homo sapiens (human) SK-MEL-28 cells at 10^-4 to 10^-8 M after 48 hr by SRB assay; settings: SK-MEL-28, 48 h, read-out: pTGI (converted)
LOX IMVI = experiment: Cytotoxicity against Homo sapiens (human) LOXIMVI cells after 48 hr by SRB assay
SF-539 = experiment: Cytotoxicity against Homo sapiens (human) SF539 cells after 48 hr by SRB assay
SW-620 [9] = experiment: Cytotoxicity against Homo sapiens (human) SW620 cells after 48 hr by SRB assay
HT-29 = experiment: Cytotoxicity against Homo sapiens (human) HT-29 cells after 48 hr by SRB assay
NCI-H322M = experiment: Cytotoxicity against Homo sapiens (human) NCI-H322M cells after 48 hr by SRB assay
EKVX [10] = experiment: Cytotoxicity against Homo sapiens (human) EKVX cells after 48 hr by SRB assay
HOP-62 [11] = experiment: Cytotoxicity against Homo sapiens (human) HOP62 cells after 48 hr by SRB assay
SR [12] = experiment: Cytotoxicity against Homo sapiens (human) SR cells after 48 hr by SRB assay
CCRF-CEM [13] = experiment: Cytotoxicity against Homo sapiens (human) CCRF-CEM cells after 48 hr by SRB assay
[14] = Homo sapiens, NCI/ADR-RES, 48 h

Structure (SMILES) | TGI (SW-620 [1]) [µM] | TGI (HCT-116) [µM] | TGI (HCC 2998) [µM] | TGI (COLO 205) [µM] | TGI (NCI-H460) [µM] | TGI (NCI-H23) [µM] | TGI (NCI-H226) [µM] | TGI (HOP-92) [µM] | TGI (EKVX [2]) [µM] | TGI (HOP-62 [3]) [µM] | TGI (K562) [µM] | TGI (CCRF-CEM [4]) [µM] | Activity (SR [7]) [%] | TGI (BT-549) [µM] | TGI (MDA-MB-231) [µM] | TGI (PC-3) [µM] | TGI (CAKI-1) [µM] | TGI (786-0) [µM] | TGI (OVCAR-8) [µM] | TGI (SK-MEL-5) [µM] | also measured
COC(=O)[C@]12CCC(C)(C)C[C@H]1C1=CC[C@@H]3[C@@]4(C)CC/C(=N\O)C(C)(C)[C@@H]4CC[C@@]3(C)[C@]1(C)CC2 | 40.7 | 56.2 | 42.7 | 57.5 | 51.3 | 38 | 66.1 | 39.8 | 72.4 | 44.7 | > 100 | 81.3 | -41.06 | > 100 | 40.7 | 44.7 | 47.9 | 34.7 | > 100 | 63.1 | GI50 (UO-31; Homo sapiens, UO-31, 48 h): 22.4 µM; GI50 (A498; Homo sapiens, A498, 48 h): 28.2 µM; GI50 [5, 14]: 37.2 µM; GI50 (OVCAR-5; Homo sapiens, OVCAR-5, 48 h): 24.5 µM; GI50 (OVCAR-3; Homo sapiens, OVCAR-3, 48 h): 18.6 µM; GI50 (UACC-257 [6]; Homo sapiens, UACC-257, 48 h): 33.1 µM; TGI (UACC-257 [8]): > 100 µM; TGI (SK-MEL-2): > 100 µM; TGI (SK-MEL-28): 66.1 µM; GI50 (LOX IMVI; Homo sapiens, LOX IMVI, 48 h): 19.5 µM; GI50 (SF-539; Homo sapiens, SF-539, 48 h): 20.9 µM; GI50 (SW-620 [9]; Homo sapiens, SW-620, 48 h): 20 µM; GI50 (HT-29; Homo sapiens, HT-29, 48 h): 22.9 µM; GI50 (NCI-H322M; Homo sapiens, NCI-H322M, 48 h): 72.4 µM; GI50 (EKVX [10]; Homo sapiens, EKVX, 48 h): 28.2 µM; GI50 (HOP-62 [11]; Homo sapiens, HOP-62, 48 h): 21.4 µM; GI50 (SR [12]; Homo sapiens, SR, 48 h): 26.9 µM; GI50 (CCRF-CEM [13]): 28.2 µM
COC(=O)[C@]12CCC(C)(C)C[C@H]1C1=CC[C@@H]3[C@@]4(C)CC/C(=N\OC(=O)/C=C5/SC(=O)NC5=O)C(C)(C)[C@@H]4CC[C@@]3(C)[C@]1(C)CC2 | 3.89 | 3.39 | 12.3 | 5.37 | 9.55 | 12.3 | 30.9 | 4.68 | 22.4 | 36.3 | 8.13 | 7.76 | -22.69 | 9.12 | 7.59 | 14.1 | 16.2 | 11.5 | 15.1 | 17.8 | GI50 (UO-31): 5.75 µM and 1.48 µM; GI50 (A498): 17.8 µM and 2.57 µM; GI50 [5]: 61.7 µM and 7.59 µM; GI50 (OVCAR-5): 60.3 µM and 18.6 µM; GI50 (OVCAR-3): 6.31 µM and 1.91 µM; GI50 (UACC-257 [6]): 51.3 µM and 11.5 µM; TGI (UACC-257 [8]): 24.5 µM; TGI (SK-MEL-2): 17.8 µM; TGI (SK-MEL-28): 3.8 µM; GI50 (LOX IMVI): 6.61 µM and 1.48 µM; GI50 (SF-539): 7.59 µM and 1.78 µM; GI50 (SW-620 [9]): 7.59 µM and 2 µM; GI50 (HT-29): 15.8 µM and 2.24 µM; GI50 (NCI-H322M): 58.9 µM and 18.2 µM; GI50 (EKVX [10]): 56.2 µM and 6.76 µM; GI50 (HOP-62 [11]): 64.6 µM and 20 µM; GI50 (SR [12]): 8.91 µM and 1.7 µM; GI50 (CCRF-CEM [13]): 2.45 µM; LC50 (CCRF-CEM [13]): 37.2 µM
CC1(C)CC[C@@]23CC[C@]4(C)[C@@](OC2=O)([C@@H]3C1)[C@@H](Br)C[C@@H]1[C@@]2(C)CC/C(=N\O)C(C)(C)[C@@H]2CC[C@]14C | > 100 | > 100 | > 100 | > 100 | > 100 | > 100 | > 100 | 46.8 | > 100 | > 100 | > 100 | > 100 | -62.66 | 69.2 | 47.9 | > 100 | > 100 | > 100 | 53.7 | > 100 | GI50 (UO-31; Homo sapiens, UO-31, 48 h): 40.7 µM; GI50 (A498; Homo sapiens, A498, 48 h): 49 µM; GI50 [5, 14]: 26.9 µM; GI50 (OVCAR-5; Homo sapiens, OVCAR-5, 48 h): > 100 µM; GI50 (OVCAR-3; Homo sapiens, OVCAR-3, 48 h): 11.5 µM; GI50 (UACC-257 [6]; Homo sapiens, UACC-257, 48 h): 14.8 µM; TGI (UACC-257 [8]): > 100 µM; TGI (SK-MEL-2): > 100 µM; TGI (SK-MEL-28): > 100 µM; GI50 (LOX IMVI; Homo sapiens, LOX IMVI, 48 h): 10 µM; GI50 (SF-539; Homo sapiens, SF-539, 48 h): 20 µM; GI50 (SW-620 [9]; Homo sapiens, SW-620, 48 h): 6.76 µM; GI50 (HT-29; Homo sapiens, HT-29, 48 h): 17.8 µM; GI50 (NCI-H322M; Homo sapiens, NCI-H322M, 48 h): 20 µM; GI50 (EKVX [10]; Homo sapiens, EKVX, 48 h): 91.2 µM; GI50 (HOP-62 [11]; Homo sapiens, HOP-62, 48 h): 40.7 µM; GI50 (SR [12]; Homo sapiens, SR, 48 h): 2.14 µM; GI50 (CCRF-CEM [13]): 17.4 µM
